How the values were obtained:
PDGFR-β = molecular target: T1, PDGFR-β (Homo sapiens, UniProt P09619); test: PDGFR-β (DKIN) phage-display competitive binding assay
T1 construct: Kd for PDGFR-β (DKIN); made in house
Text: (§1) Methods for measuring binding affinities for interactions between small molecules and kinases including FLT3, c-KIT, ABL(T334I) [a.k.a. ABL(T315I)], VEGFR-2 (a.k.a. KDR), and EGFR are described in detail in U.S. application Ser. No. 10/873,835, which is incorporated by reference herein in its entirety. The components of the assays include human kinases expressed as fusions to T7 bacteriophage particles and immobilized ligands that bind to the ATP site of the kinases. […] If the test compound binds the kinase it competes with the immobilized ligand and prevents binding to the solid support. […] The results are read out by quantitating the amount of fusion protein bound to the solid support, which is accomplished by either traditional phage plaque assays or by quantitative PCR (qPCR) using the phage genome as a template. […] The concentration of test molecule that reduces the number of phage bound to the solid support by 50% is equal to the Kd for the interaction between the kinase and the test molecule. Typically, data are collected for twelve concentrations of test compound and, the resultant binding curve is fit to a non-cooperative binding isotherm to calculate Kd.
(§2) Described in the exemplary assays below is data from binding with varying kinases. […] The term “ND” represents non-determined values.
Kd values for the interactions between PDGFR-β and candidate small molecule ligands were measured by a phage-display-based competitive binding assay that is described in detail in U.S. Ser. No. 10/406,797 filed 2 Apr. 2003 and incorporated herein by reference. Briefly, T7 phage displaying human PDGFR-β were incubated with an affinity matrix coated with known PDGFR-β inhibitor in the presence of various concentrations of the soluble competitor molecules. […] The Kd for the interaction between the soluble competitor molecule and PDGFR-β is equal to the concentration of soluble competitor molecule that causes a 50% reduction in the number of phage recovered in the eluate compared to a control sample lacking soluble competitor. Since this assay is generic, and any molecule can be used as a soluble competitor, we have determined Kd values for the interaction between PDGFR-β and several small molecules, including those shown below.

ABL1 = molecular target: T2, ABL1 (Homo sapiens, UniProt P00519); test: ABL1 (DKIN) phage-display competitive binding assay
T2 construct: made in house
T2 sequence (P00519 242-493 limits assumed): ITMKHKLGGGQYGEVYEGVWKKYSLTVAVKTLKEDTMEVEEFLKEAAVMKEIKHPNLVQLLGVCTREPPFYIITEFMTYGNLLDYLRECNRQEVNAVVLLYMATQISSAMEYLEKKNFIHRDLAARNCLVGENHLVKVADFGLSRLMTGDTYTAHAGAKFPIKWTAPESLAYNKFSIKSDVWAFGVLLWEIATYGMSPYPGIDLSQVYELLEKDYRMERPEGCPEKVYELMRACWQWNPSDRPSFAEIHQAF
Text: as §1, §2

FLT3 = molecular target: T3, FLT3 (Homo sapiens, UniProt P36888); test: FLT3 (DKIN) phage-display competitive binding assay
T3 construct: made in house
T3 sequence (P36888 610-943 limits assumed): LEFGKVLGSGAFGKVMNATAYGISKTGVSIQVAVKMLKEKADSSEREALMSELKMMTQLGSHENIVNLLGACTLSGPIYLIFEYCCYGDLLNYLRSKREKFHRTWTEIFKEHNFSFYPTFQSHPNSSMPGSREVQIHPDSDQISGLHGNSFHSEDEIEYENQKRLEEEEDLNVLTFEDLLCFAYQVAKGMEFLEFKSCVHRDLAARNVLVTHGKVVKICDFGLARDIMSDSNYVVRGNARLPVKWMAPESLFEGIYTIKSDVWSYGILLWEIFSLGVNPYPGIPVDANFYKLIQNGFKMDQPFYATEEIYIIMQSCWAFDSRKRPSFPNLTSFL
Text: as §1, §2

MV4,11 cells [1] = test: (MV 4,11) Cell Proliferation Assay with 0.5% Serum "CS0001"; type: cell-based; conditions: Homo sapiens
Procedure: (§3) The ability of FLT3 kinase inhibitors to inhibit cellular proliferation was also examined. MV4:11 was a cell line derived from a patient with acute myelogenous leukemia. It expressed a mutant FLT3 protein that was constitutively active. […] Inhibition of FLT3 kinase activity prevented proliferation of these cells, and thus the MV4:11 cell line can be used a model for cellular activity of small molecule inhibitors of FLT3.
(§4) FLT3 Assay using MV4,11 Cells
(§5) MV4,11 cells were grown in an incubator @ 37° C. in 5% CO2 in Medium 2 (RPMI, 10% FBS, 4 mM glutamine, Penn/Strep). The cells were counted daily and the cell density was kept between 1e5 and 8e5 cells/ml.
Day One: Enough cells were harvested for experiments to be conducted in 50 ml conical tubes. The harvested cells were spun at 500 g for 5 min at 4° C., the supernatant was then aspirated and the cells were resuspended in the starting volume of 1× PBS. The cells were again spun at 500 g for 5 min at 4° C. and the supernatant again aspirated. […]
(§6) Day Two: The cells were counted and enough medium 3 was added to decrease density to 2e5 cells/ml. 50 ul (10,000 cells) was aliquoted into each well of a 96 well optical plate using multichannel pipetman. […]

VEGFR-2 = molecular target: T4, VEGFR-2 (Homo sapiens, UniProt P35968); test: VEGFR-2 phage-display competitive binding assay
T4 construct: made in house
Text: as §1, §2

MV4,11 cells [2] = test: FLT-3 cell assay, (MV 4,11) cell proliferation assay with 10% serum "CS0005"; type: cell-based, human
Procedure: as §3, §4, §5
Day One: Enough cells were harvested for experiments to be conducted in 50 ml conical tubes. The harvested cells were spun at 500 g for 5 min at 4° C., the supernatant was then aspirated and the cells were resuspended in the starting volume of 1× PBS. The cells were again spun at 500 g for 5 min at 4° C. and the supernatant again aspirated. The cells were then resuspended in medium 3 (DMEM w/glut, 10% FBS, Penn/Strep) to a density of 4e^5 cells/ml and incubated @ 37° C. in 5% CO2 O/N.
as §6

T1 sequence (P09619 600-962 limits assumed): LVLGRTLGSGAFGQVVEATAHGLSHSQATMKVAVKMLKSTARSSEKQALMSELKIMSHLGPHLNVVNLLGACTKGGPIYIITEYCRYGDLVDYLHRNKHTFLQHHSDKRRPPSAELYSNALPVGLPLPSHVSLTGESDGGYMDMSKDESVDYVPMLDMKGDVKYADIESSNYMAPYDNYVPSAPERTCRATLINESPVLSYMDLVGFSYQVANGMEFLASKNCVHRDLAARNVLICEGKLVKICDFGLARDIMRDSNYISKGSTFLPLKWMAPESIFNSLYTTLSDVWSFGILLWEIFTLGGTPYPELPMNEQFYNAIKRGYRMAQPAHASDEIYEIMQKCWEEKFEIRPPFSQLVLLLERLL
T4 sequence (P35968 20-1356): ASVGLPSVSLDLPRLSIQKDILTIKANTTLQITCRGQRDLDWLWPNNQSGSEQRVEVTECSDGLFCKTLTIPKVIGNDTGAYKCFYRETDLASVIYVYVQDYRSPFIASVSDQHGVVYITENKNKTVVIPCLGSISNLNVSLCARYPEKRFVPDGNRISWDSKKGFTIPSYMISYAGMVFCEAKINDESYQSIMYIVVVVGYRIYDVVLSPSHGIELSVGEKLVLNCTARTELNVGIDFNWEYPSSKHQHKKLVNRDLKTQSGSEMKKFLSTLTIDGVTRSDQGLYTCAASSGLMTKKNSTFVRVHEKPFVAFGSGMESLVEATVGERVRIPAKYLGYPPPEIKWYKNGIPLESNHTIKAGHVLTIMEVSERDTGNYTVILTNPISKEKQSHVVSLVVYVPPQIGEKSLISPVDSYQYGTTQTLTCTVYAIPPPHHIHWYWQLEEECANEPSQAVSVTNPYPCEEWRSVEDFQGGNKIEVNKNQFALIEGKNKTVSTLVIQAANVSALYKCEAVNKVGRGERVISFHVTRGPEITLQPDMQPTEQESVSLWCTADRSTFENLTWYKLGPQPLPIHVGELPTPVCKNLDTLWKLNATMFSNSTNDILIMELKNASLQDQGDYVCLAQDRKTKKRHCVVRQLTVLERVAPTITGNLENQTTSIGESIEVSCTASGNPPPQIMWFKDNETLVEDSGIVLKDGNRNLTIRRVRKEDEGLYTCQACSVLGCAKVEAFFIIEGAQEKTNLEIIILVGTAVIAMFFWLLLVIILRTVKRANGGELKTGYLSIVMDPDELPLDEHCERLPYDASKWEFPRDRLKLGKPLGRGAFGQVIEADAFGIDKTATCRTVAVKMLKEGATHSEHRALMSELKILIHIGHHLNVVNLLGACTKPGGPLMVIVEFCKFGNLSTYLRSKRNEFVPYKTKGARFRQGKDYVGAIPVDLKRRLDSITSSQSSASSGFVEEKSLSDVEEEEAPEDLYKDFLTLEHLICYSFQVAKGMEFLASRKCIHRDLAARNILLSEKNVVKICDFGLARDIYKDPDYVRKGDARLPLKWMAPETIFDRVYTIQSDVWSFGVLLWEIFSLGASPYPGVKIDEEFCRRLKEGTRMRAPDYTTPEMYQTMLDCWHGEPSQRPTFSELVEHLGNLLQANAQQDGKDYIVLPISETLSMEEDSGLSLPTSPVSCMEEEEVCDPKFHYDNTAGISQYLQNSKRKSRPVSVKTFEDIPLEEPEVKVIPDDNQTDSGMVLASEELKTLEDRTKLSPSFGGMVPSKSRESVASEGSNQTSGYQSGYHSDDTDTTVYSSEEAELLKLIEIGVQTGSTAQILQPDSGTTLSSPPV

SMILES | Kd (PDGFR-β) | other results
COc1ccc(-c2cc3c(Nc4ccc(F)c(Cl)c4)ncnc3[nH]2)cc1 [Compound S7] | > 10000 nM | –
CCc1ccccc1Nc1ncnc2c1cc(-c1ccc(O)cc1)n2C [Compound Q4] | 100 to 1000 nM | –
COc1cccc(-c2cc3c(Nc4cccc(O)c4)ncnc3[nH]2)c1 [Compound S16] | 1000 to 10000 nM | Kd (ABL1): 100 to 1000 nM; Kd (FLT3): 100 to 1000 nM
Cc1cc(C)cc(Nc2ncnc3[nH]c(-c4ccc(Br)cc4)cc23)c1 [Compound S39] | – | IC50 (MV4,11 cells [1]): 100 to 1000 nM; Kd (FLT3): > 10000 nM
COc1ccc(-c2cc3c(Nc4ccc(F)cc4)ncnc3[nH]2)cc1 [Compound S9] | 100 to 1000 nM | –
CC(Nc1ncnc2oc(-c3ccccc3)c(-c3ccccc3)c12)c1ccccc1 (stereo not shown) [Compound H3] | – | Kd (VEGFR-2): > 10000 nM
C[C@H](Nc1ncnc2[nH]c(-c3ccc(O)cc3)cc12)c1ccccc1 [Compound I9] | – | Kd (ABL1): 1000 to 10000 nM
Cn1c(-c2ccc(O)cc2)cc2c(Nc3ccccc3Cl)ncnc21 [Compound Q3] | 100 to 1000 nM | –
C[C@@H](Nc1ncnc2c1cc(-c1ccc(O)cc1)n2C)c1ccccc1 [Compound Q2] | 100 to 1000 nM | –
COc1cccc(-c2cc3c(NCc4cccc(C)c4)ncnc3[nH]2)c1 [Compound I12] | – | Kd (FLT3): > 10000 nM
COc1ccc(-c2cc3c(NCCc4ccccc4)ncnc3[nH]2)cc1 [Compound I8] | 1000 to 10000 nM | Kd (ABL1): 100 to 1000 nM
COc1ccc(-c2cc3c(Nc4cccc(O)c4)ncnc3[nH]2)cc1 [Compound S6] | > 10000 nM | –
COc1cccc(-c2cc3c(N[C@H](C)c4ccccc4)ncnc3[nH]2)c1 [Compound I10] | 100 to 1000 nM | –
COc1ccc(-c2cc3c(N[C@H](C)c4ccccc4)nc(N[C@@H](C)c4ccccc4)nc3[nH]2)cc1 [Compound M22] | 100 to 1000 nM | –
COc1ccc(-c2cc3c(N[C@@H](C)c4ccccc4)ncnc3n2C(C)C)cc1 [Compound D10] | – | Kd (ABL1): 1000 to 10000 nM
COC(=O)C(Nc1ncnc2[nH]c(-c3ccc(OC)cc3)cc12)c1ccccc1 (stereo not shown) [Compound I7] | 100 to 1000 nM | –
COc1ccc(-c2cc3c(Nc4cccc(C)c4)ncnc3[nH]2)cc1 [Compound S10] | 100 to 1000 nM | activity in the FLT-3 cell assay, (MV 4,11) cell proliferation assay with 10% serum, "CS0005" (MV4,11 cells [2]): ++ (a Kd of 1,000 nM to 10,000 nM); IC50 (MV4,11 cells [1]): < 100 nM
COC(=O)c1cccc(Nc2ncnc3[nH]c(-c4cccc(OC)c4)cc23)c1 [Compound S15] | 1000 to 10000 nM | –
COc1ccc(-c2cc3c(NCc4cccc(C)c4)ncnc3[nH]2)cc1 [Compound I4] | 100 to 1000 nM | –

— patent US20050187389A1, “Pyrrolopyrimidine derivatives and analogs and their use in the treatment and prevention of diseases” (Ambit Biosciences Corporation, priority 2004, published 2005)
